Measurements: patent US20260184710A1, “CASITAS B-LINEAGE LYMPHOMA PROTOONCOGENE B (CBL-B) DEGRADING COMPOUNDS AND ASSOCIATED METHODS OF USE” (Arvinas Operations, Inc., priority 2022, published 2026)

Key:
Cbl-b [1] = molecular target: T1, Cbl-b (Homo sapiens, UniProt Q13191); assay: Cbl-b Degradation Method A (FACS, anti-Cbl-b antibody staining); format: cell-based; details: for DC50: half maximal degradation, read-out: Cbl-b Degredation Method A IC50; for Dmax: Jurkat, read-out: Cbl-b Degredation Method A Dmax (%)
T1 construct: Cbl-b-HiBit KI Jurkat Cells were purchased from Promega; host or cells: Cbl-b-HiBiT knock-in Jurkat cells
T1 sequence (Q13191 whole entry): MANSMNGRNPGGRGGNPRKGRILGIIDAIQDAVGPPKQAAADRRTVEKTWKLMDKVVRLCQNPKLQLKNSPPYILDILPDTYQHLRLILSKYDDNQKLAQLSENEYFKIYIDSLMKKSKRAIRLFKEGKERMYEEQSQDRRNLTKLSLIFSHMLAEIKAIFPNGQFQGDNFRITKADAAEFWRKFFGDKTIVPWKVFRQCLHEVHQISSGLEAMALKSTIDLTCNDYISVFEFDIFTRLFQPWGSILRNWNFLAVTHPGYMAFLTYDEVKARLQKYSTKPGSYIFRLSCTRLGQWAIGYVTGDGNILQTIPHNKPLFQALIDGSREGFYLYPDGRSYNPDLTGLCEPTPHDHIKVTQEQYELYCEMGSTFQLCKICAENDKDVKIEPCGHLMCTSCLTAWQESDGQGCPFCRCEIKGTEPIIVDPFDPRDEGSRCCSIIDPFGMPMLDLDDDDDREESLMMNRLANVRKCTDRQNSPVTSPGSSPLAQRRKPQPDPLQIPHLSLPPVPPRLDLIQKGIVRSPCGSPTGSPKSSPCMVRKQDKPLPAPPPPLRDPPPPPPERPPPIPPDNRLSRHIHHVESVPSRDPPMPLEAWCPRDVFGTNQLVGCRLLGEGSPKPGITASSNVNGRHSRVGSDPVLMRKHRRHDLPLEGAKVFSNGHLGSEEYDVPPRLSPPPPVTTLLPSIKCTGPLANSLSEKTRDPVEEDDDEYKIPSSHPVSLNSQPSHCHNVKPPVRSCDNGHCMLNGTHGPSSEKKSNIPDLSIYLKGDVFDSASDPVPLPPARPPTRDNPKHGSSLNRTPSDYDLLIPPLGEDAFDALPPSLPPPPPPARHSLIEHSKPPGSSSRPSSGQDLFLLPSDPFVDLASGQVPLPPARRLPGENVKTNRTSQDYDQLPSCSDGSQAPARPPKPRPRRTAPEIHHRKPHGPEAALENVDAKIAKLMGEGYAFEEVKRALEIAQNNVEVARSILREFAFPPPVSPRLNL
Summary of the method: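 Cbl-b-HiBit KI Jurkat cells treated with compound for at least 20 h at 37 °C, then fixed, permeabilized and stained with anti-Cbl-b antibody plus anti-rabbit AF488 secondary. Cbl-b levels read by FACS; DC50 and Dmax (percent of control) derived.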

Cbl-b [2] = molecular target: T1, Cbl-b; assay: Cbl-b Degradation Method B (Nano-Glo HiBiT lytic detection); format: cell-based; details: Cbl-b-HiBit KI Jurkat Cells, incubated at least 6-24 hours; for DC50: half maximal degradation, read-out: Cbl-b Degredation Method B IC50; for Dmax: maximum degradation observed, read-out: Cbl-b Degredation Method B Dmax (%)
Summary of the method: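 Cbl-b-HiBiT knock-in Jurkat cells (20,000/well) were treated after ~24 h plating with an 11-point 1:3 series for 6-24 h at 37° C. Remaining Cbl-b measured by Nano-Glo HiBiT lytic luminescence. DC50 and Dmax expressed as % of control.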

[3] = Cbl-b-HiBit KI Jurkat Cells, incubated at least 20 hours
[4] = Cbl-b-HiBit KI Jurkat Cells, incubated at least 20 hours, maximum degradation observed

Row | SMILES | DC50 (Cbl-b [1]; [3]) | DC50 (Cbl-b [2]) | Dmax (Cbl-b [1]; [4]) | Dmax (Cbl-b [2]) | Dmax (Cbl-b [1])
1 | Cn1cnnc1CC1(c2cccc(N3Cc4c(cc(N5CC6(CCN(Cc7ccc8c(c7)C(=O)N(C7CCC(=O)NC7=O)C8=O)CC6)C5)cc4C(F)(F)F)C3=O)c2)COC1 (centres unmarked) [Example 130, 2-(2,6-dioxopiperidin-3-yl)-5-({2-[2-(3-{3-[(4-methyl-4H-1,2,4-triazol-3-yl)methyl]oxetan-3-yl}phenyl)-3-oxo-7-(trifluoromethyl)-2,3-dihydro-1H-isoindol-5-yl]-2,7-diazaspiro[3.5]nonan-7-yl}methyl)-2,3-dihydro-1H-isoindole-1,3-dione] | > 500 nM | > 500 nM |  |  | 
2 | Cn1cnnc1CC1(c2cccc(N3Cc4c(cc(N5CC6(CCN(CC7CCN(c8ccc9c(n8)CN(C8CCC(=O)NC8=O)C9=O)CC7)CC6)C5)cc4C(F)(F)F)C3=O)c2)COC1 (centres unmarked) [Example 131, 3-{2-[4-({2-[2-(3-{3-[(4-methyl-4H-1,2,4-triazol-3-yl)methyl]oxetan-3-yl}phenyl)-3-oxo-7-(trifluoromethyl)-2,3-dihydro-1H-isoindol-5-yl]-2,7-diazaspiro[3.5]nonan-7-yl}methyl)piperidin-1-yl]-5-oxo-5H,6H,7H-pyrrolo[3,4-b]pyridin-6-yl}piperidine-2,6-dione] | 5 to 50 nM | < 5 nM | 35 to 70% | 35 to 70% | 
3 | Cn1cnnc1CC1(c2cccc(N3Cc4c(cc(N5CC6(CCN(CC7CN(c8ccc9c(c8)C(=O)N(C8CCC(=O)NC8=O)C9=O)C7)CC6)C5)cc4C(F)(F)F)C3=O)c2)COC1 (centres unmarked) [Example 132, 2-(2,6-dioxopiperidin-3-yl)-5-[3-({2-[2-(3-{3-[(4-methyl-4H-1,2,4-triazol-3-yl)methyl]oxetan-3-yl}phenyl)-3-oxo-7-(trifluoromethyl)-2,3-dihydro-1H-isoindol-5-yl]-2,7-diazaspiro[3.5]nonan-7-yl}methyl)azetidin-1-yl]-2,3-dihydro-1H-isoindole-1,3-dione] | 5 to 50 nM | < 5 nM | 35 to 70% | 35 to 70% | 
4 | Cn1cnnc1CC1(c2cccc(N3Cc4c(cc(N5CCC(CC6CN(c7ccc8c(c7)C(=O)N(C7CCC(=O)NC7=O)C8=O)C6)CC5)cc4C(F)(F)F)C3=O)c2)COC1 (centres unmarked) [Example 134, 2-(2,6-dioxopiperidin-3-yl)-5-[3-({1-[2-(3-{3-[(4-methyl-4H-1,2,4-triazol-3-yl)methyl]oxetan-3-yl}phenyl)-3-oxo-7-(trifluoromethyl)-2,3-dihydro-1H-isoindol-5-yl]piperidin-4-yl}methyl)azetidin-1-yl]-2,3-dihydro-1H-isoindole-1,3-dione] | 50 to 500 nM | > 500 nM | < 35% |  | 
5 | Cn1cnnc1CC1(c2cccc(N3Cc4c(cc(N5CCC6(CC5)CN(CC5CCN(c7ccc8c(c7)C(=O)N(C7CCC(=O)NC7=O)C8=O)CC5)C6)cc4C(F)(F)F)C3=O)c2)COC1 (centres unmarked) [Example 135, 2-(2,6-dioxopiperidin-3-yl)-5-[4-({7-[2-(3-{3-[(4-methyl-4H-1,2,4-triazol-3-yl)methyl]oxetan-3-yl}phenyl)-3-oxo-7-(trifluoromethyl)-2,3-dihydro-1H-isoindol-5-yl]-2,7-diazaspiro[3.5]nonan-2-yl}methyl)piperidin-1-yl]-2,3-dihydro-1H-isoindole-1,3-dione] | 50 to 500 nM | > 500 nM |  |  | 
6 | Cn1cnnc1C[C@]1(c2cccc(N3Cc4c(cc(N5CC6(CCN(CC7CCN(c8ccc9c(c8)C(=O)N(C8CCC(=O)NC8=O)C9=O)CC7)CC6)C5)cc4C(F)(F)F)C3=O)c2)C[C@H](C#N)C1 (some centres unmarked) [Example 136, (1r,3r)-3-(3-{6-[7-({1-[2-(2,6-dioxopiperidin-3-yl)-1,3-dioxo-2,3-dihydro-1H-isoindol-5-yl]piperidin-4-yl}methyl)-2,7-diazaspiro[3.5]nonan-2-yl]-1-oxo-4-(trifluoromethyl)-2,3-dihydro-1H-isoindol-2-yl}phenyl)-3-[(4-methyl-4H-1,2,4-triazol-3-yl)methyl]cyclobutane-1-carbonitrile] | 5 to 50 nM | 5 to 50 nM | 35 to 70% | 35 to 70% | 
7 | Cn1cnnc1C[C@]1(c2cccc(N3Cc4c(cc(N5CC6(CCN(CC7CCN(c8ccc9c(c8)C(=O)N(C8CCC(=O)NC8=O)C9=O)CC7)CC6)C5)cc4C(F)(F)F)C3=O)c2)C[C@@H](C#N)C1 (some centres unmarked) [Example 137, (1s,3s)-3-(3-{6-[7-({1-[2-(2,6-dioxopiperidin-3-yl)-1,3-dioxo-2,3-dihydro-1H-isoindol-5-yl]piperidin-4-yl}methyl)-2,7-diazaspiro[3.5]nonan-2-yl]-1-oxo-4-(trifluoromethyl)-2,3-dihydro-1H-isoindol-2-yl}phenyl)-3-[(4-methyl-4H-1,2,4-triazol-3-yl)methyl]cyclobutane-1-carbonitrile] | 5 to 50 nM | 5 to 50 nM | 35 to 70% | 35 to 70% | 
8 | CC1c2cc(N3CCC(CN4CCC5(CC4)CN(c4cc6c(c(C(F)(F)F)c4)CN(c4cccc(C7(Cc8nncn8C)COC7)c4)C6=O)C5)CC3)ccc2C(=O)N1C1CCC(=O)NC1=O (centres unmarked) [Example 138, 3-{3-methyl-5-[4-({2-[2-(3-{3-[(4-methyl-4H-1,2,4-triazol-3-yl)methyl]oxetan-3-yl}phenyl)-3-oxo-7-(trifluoromethyl)-2,3-dihydro-1H-isoindol-5-yl]-2,7-diazaspiro[3.5]nonan-7-yl}methyl)piperidin-1-yl]-1-oxo-2,3-dihydro-1H-isoindol-2-yl}piperidine-2,6-dione] | 5 to 50 nM | < 5 nM | 35 to 70% | < 35% | 
9 | Cn1cnnc1CC1(c2cccc(N3Cc4c(cc(N5CCN(C[C@H]6CC[C@H](OC7CCN(c8ccc9c(c8F)CN(C8CCC(=O)NC8=O)C9=O)CC7)CC6)CC5)cc4C(F)(F)F)C3=O)c2)COC1 (some centres unmarked) [Example 139, 3-[4-fluoro-1-oxo-5-(4-{[(1r,4r)-4-({4-[2-(3-{3-[(4-methyl-4H-1,2,4-triazol-3-yl)methyl]oxetan-3-yl}phenyl)-3-oxo-7-(trifluoromethyl)-2,3-dihydro-1H-isoindol-5-yl]piperazin-1-yl}methyl)cyclohexyl]oxy}piperidin-1-yl)-2,3-dihydro-1H-isoindol-2-yl]piperidine-2,6-dione] | 5 to 50 nM | 5 to 50 nM | 35 to 70% | 35 to 70% | 
10 | Cn1cnnc1CC1(c2cccc(N3Cc4c(cc(CN5CCC[C@H](CN6CCN(C[C@H]7CC[C@H](OC8CCN(c9ccc%10c(c9F)CN(C9CCC(=O)NC9=O)C%10=O)CC8)CC7)CC6(C)C)C5)cc4C(F)(F)F)C3=O)c2)COC1 (stereo partly drawn) [Example 148, 3-[5-[4-[4-[[3,3-dimethyl-4-[[(3S)-1-[[2-[3-[3-[(4-methyl-1,2,4-triazol-3-yl)methyl]oxetan-3-yl]phenyl]-3-oxo-7-(trifluoromethyl)isoindolin-5-yl]methyl]-3-piperidyl]methyl]piperazin-1-yl]methyl]cyclohexoxy]-1-piperidyl]-4-fluoro-1-oxo-isoindolin-2-yl]piperidine-2,6-dione] | < 5 nM | < 5 nM |  | > 70% | > 70%
11 | Cn1cnnc1[C@]1(c2cccc(N3Cc4c(cc(CN5CCC[C@H](CN6CCN(C[C@H]7CC[C@@H](OC8CCN(c9ccc%10c(c9F)CN(C9CCC(=O)NC9=O)C%10=O)CC8)CC7)CC6)C5)cc4C(F)(F)F)C3=O)c2)C[C@@H](C)C1 (stereo partly drawn) [Example 157, 3-[4-fluoro-1-oxo-5-(4-{[(1r,4r)-4-[(4-{[(3S)-1-[(3-oxo-2-{3-[(1r,3s)-3-methyl-1-(4-methyl-4H-1,2,4-triazol-3-yl)cyclobutyl]phenyl}-7-(trifluoromethyl)-2,3-dihydro-1H-isoindol-5-yl)methyl]piperidin-3-yl]methyl}piperazin-1-yl)methyl]cyclohexyl]oxy}piperidin-1-yl)-2,3-dihydro-1H-isoindol-2-yl]piperidine-2,6-dione] | < 5 nM | < 5 nM | > 70% | 35 to 70% | 
12 | Cn1cnnc1C(c1cccc(N2Cc3c(cc(CN4CCC[C@H](CN5CCN(C[C@H]6CC[C@@H](OC7CCN(c8ccc9c(c8F)CN(C8CCC(=O)NC8=O)C9=O)CC7)CC6)CC5)C4)cc3C(F)(F)F)C2=O)c1)C1CCC1 (stereo partly drawn) [Example 158, 3-[4-fluoro-1-oxo-5-(4-{[(1r,4r)-4-[(4-{[(3S)-1-[(2-{3-[cyclobutyl(4-methyl-4H-1,2,4-triazol-3-yl)methyl]phenyl}-3-oxo-7-(trifluoromethyl)-2,3-dihydro-1H-isoindol-5-yl)methyl]piperidin-3-yl]methyl}piperazin-1-yl)methyl]cyclohexyl]oxy}piperidin-1-yl)-2,3-dihydro-1H-isoindol-2-yl]piperidine-2,6-dione] | < 5 nM | < 5 nM | > 70% | 35 to 70% | 
13 | Cn1cnnc1[C@]1(c2cccc(N3Cc4c(cc(CN5CCC[C@H](CN6CCN(C[C@H]7CC[C@@H](OC8CCN(c9ccc%10c(c9F)CN(C9CCC(=O)NC9=O)C%10=O)CC8)CC7)CC6)C5)cc4C(F)(F)F)C3=O)c2)C[C@H](C)C1 (stereo partly drawn) [Example 159, 3-[4-fluoro-1-oxo-5-(4-{[(1r,4r)-4-[(4-{[(3S)-1-[(3-oxo-2-{3-[(1s,3r)-3-methyl-1-(4-methyl-4H-1,2,4-triazol-3-yl)cyclobutyl]phenyl}-7-(trifluoromethyl)-2,3-dihydro-1H-isoindol-5-yl)methyl]piperidin-3-yl]methyl}piperazin-1-yl)methyl]cyclohexyl]oxy}piperidin-1-yl)-2,3-dihydro-1H-isoindol-2-yl]piperidine-2,6-dione] | < 5 nM | < 5 nM | > 70% | 35 to 70% | 
